From patent publication US20030040486A1 (priority 2001, published 2003)

Tests used:
[1] = test system: male Sprague-Dawley rats; assay: Rat hindpaw withdrawal latency (HWL) to mechanical stimulation, Randall Selitto Test; type: in vivo; conditions: for HWL increase using mechanical stimulation: drug alone, intrathecal, FIGS. 2C and 2D; for % Changes of HWL to Mechanical Stimulation: intrathecal every 12 hrs: morphine 8 μg, nociceptin 10 nmol, or rotated every two days
[2] = test system: male Sprague-Dawley rats; assay: Rat hindpaw withdrawal latency (HWL) to thermal stimulation, hot-plate test; type: in vivo; conditions: for HWL increase using thermal stimulation: drug alone, intrathecal, FIGS. 2A and 2B; for % Changes of HWL to Thermal Stimulation: intrathecal every 12 hrs: morphine 8 μg, nociceptin 10 nmol, or rotated every two days
[3] = test system: male Sprague-Dawley rats; assay: Development of tolerance in the rat HWL study (thermal and mechanical stimulation); type: in vivo; conditions: for time to complete tolerance: intrathecal every 12 hrs, both hindpaws, thermal and mechanical HWL
[4] = test system: μ-opioid receptors; conditions: Hao et al. 1997; cited from earlier work
[5] = intrathecal administration; Jhamandas et al. 1998; cited from earlier work

CC(C)C[C@H](NC(=O)[C@H](CCCCN)NC(=O)[C@H](CCCN=C(N)N)NC(=O)[C@H](C)NC(=O)[C@H](CO)NC(=O)[C@H](CCCCN)NC(=O)[C@H](CCCN=C(N)N)NC(=O)[C@H](C)NC(=O)CNC(=O)[C@@H](NC(=O)[C@H](Cc1ccccc1)NC(=O)CNC(=O)CNC(=O)[C@@H](N)Cc1ccccc1)[C@@H](C)O)C(=O)N[C@@H](C)C(=O)N[C@@H](CC(N)=O)C(=O)N[C@@H](CCC(N)=O)C(=O)O [Nociceptin, nociceptin]
HWL increase using mechanical stimulation ([1]; day 1): 60-70% | % Changes of HWL to Mechanical Stimulation ([1]; day 1, left hindpaw): 69.90 ± 4.11% | % Changes of HWL to Mechanical Stimulation ([1]; day 1, right hindpaw): 61.26 ± 3.85% | % Changes of HWL to Mechanical Stimulation ([1]; day 2, left hindpaw): 31.28 ± 5.03% | % Changes of HWL to Mechanical Stimulation ([1]; day 2, right hindpaw): 30.79 ± 6.58% | % Changes of HWL to Mechanical Stimulation ([1]; day 3, left hindpaw): 10.59 ± 0.93% | % Changes of HWL to Mechanical Stimulation ([1]; day 3, right hindpaw): 10.08 ± 1.05% | % Changes of HWL to Mechanical Stimulation ([1]; day 4, left hindpaw): −0.62 ± 1.45% | % Changes of HWL to Mechanical Stimulation ([1]; day 4, right hindpaw): −0.76 ± 2.32% | HWL increase using thermal stimulation ([2]; day 1): approximately 90% | % Changes of HWL to Thermal Stimulation ([2]; day 1, left hindpaw): 93.49 ± 3.77% | % Changes of HWL to Thermal Stimulation ([2]; day 1, right hindpaw): 90.42 ± 2.65% | % Changes of HWL to Thermal Stimulation ([2]; day 2, left hindpaw): 39.91 ± 3.66% | % Changes of HWL to Thermal Stimulation ([2]; day 2, right hindpaw): 43.02 ± 2.12% | % Changes of HWL to Thermal Stimulation ([2]; day 3, left hindpaw): 9.46 ± 2.31% | % Changes of HWL to Thermal Stimulation ([2]; day 3, right hindpaw): 12.01 ± 1.48% | % Changes of HWL to Thermal Stimulation ([2]; day 4, left hindpaw): −2.18 ± 2.07% | % Changes of HWL to Thermal Stimulation ([2]; day 4, right hindpaw): −3.67 ± 1.61% | tolerance developed ([3]; by day 2, nociceptin alone group): 50% | time to complete tolerance [3]: 4 days | binding to μ-opioid receptors [4]: does not bind | duration of the antinociceptive response evoked by intrathecal deltorphin [5]: increase the duration

CN1CC[C@]23c4c5ccc(O)c4O[C@H]2[C@@H](O)C=C[C@H]3[C@H]1C5 [Morphine, morphine]
HWL increase using mechanical stimulation ([1]; day 1): ~55% | HWL increase using thermal stimulation ([2]; day 1): approximately 67% | time to complete tolerance [3]: 6 days
